Experimental data from patent publication US20250326753A1, “DUAL CXCR4-BTK INHIBITORS” (X4 Pharmaceuticals, Inc., priority 2022, published 2025).

Assays:
[1] = target: T1, BTK (Bruton tyrosine kinase) (Homo sapiens, UniProt Q06187); test: BTK screening assay (33PanQinase Activity Assay, radiometric); format: biochemical; settings: Inhibition of BTK, radiometric 33PanQinase Activity Assay, 3 μM ATP, 10 concentrations in singlicate, top 10 μM; read-out: 33PanQinase ® Radiometric IC50
T1 construct: GST or His (the text leaves open which); purchased Reaction Biology Europe GmbH Lot 012,11; host or cells: Sf9 insect cells or E. coli (not resolved)
T1 sequence (Q06187 whole entry): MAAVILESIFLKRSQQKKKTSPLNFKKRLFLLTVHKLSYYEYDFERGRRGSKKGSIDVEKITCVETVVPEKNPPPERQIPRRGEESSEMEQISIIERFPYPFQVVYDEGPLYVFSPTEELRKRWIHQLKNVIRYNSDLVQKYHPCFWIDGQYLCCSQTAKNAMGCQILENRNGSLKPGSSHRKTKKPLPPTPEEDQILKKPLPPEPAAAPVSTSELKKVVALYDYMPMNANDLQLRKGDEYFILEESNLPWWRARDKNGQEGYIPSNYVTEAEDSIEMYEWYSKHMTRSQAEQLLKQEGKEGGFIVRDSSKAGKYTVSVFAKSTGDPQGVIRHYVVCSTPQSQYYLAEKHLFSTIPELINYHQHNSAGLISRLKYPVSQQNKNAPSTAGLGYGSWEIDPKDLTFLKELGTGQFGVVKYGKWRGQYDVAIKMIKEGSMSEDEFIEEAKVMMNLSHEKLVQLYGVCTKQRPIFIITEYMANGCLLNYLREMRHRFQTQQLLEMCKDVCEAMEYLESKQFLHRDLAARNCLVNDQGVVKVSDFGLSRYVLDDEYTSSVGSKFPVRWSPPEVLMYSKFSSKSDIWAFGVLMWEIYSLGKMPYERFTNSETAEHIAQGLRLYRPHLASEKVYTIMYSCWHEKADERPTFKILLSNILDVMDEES
Description: Inhibition of BTK activity was evaluated using a radiometric protein kinase assay (33PanQinase® Activity Assay) to measure the activity of BTK (Bruton tyrosine kinase).
Kinase assays were performed in 96-well ScintiPlates™ from Perkin Elmer (Boston, MA, USA) in a 50 μL reaction volume. The reaction cocktail was pipetted in four steps in the following order: 10 μL of non-radioactive ATP solution (in H2O); 25 μL of assay buffer/[γ-^33P]-ATP mixture; 5 μL of compound test sample in 10% DMSO; 10 μL of enzyme/substrate mixture.
BTK kinase was expressed in Sf9 insect cells or in E. coli as recombinant GST-fusion proteins or His-tagged proteins, either as full-length or enzymatically active fragments from human cDNAs, and purified by either GSH-affinity chromatography or immobilized metal. Purity was examined by SDS-PAGE/Coomassie staining, and identity confirmed by mass spectroscopy.
The reaction cocktails were incubated at 30° C. for 60 minutes. The reaction was stopped with 50 μL of 2% (v/v) H3PO4, plates were aspirated and washed two times with 200 μL 0.9% (w/v) NaCl. Incorporation of ^33Pi (counting of “cpm”) was determined with a microplate scintillation counter (Microbeta, Wallac).
The median value of the counts in wells containing assay buffer without enzyme, and without test compound was defined as “low control.” This value reflects unspecific binding of radioactivity to the plate in the absence of a protein kinase but in the presence of the substrate. The median value of the counts in wells containing assay buffer without test compound was defined as the “high control,” i.e. full activity in the absence of any inhibitor. The difference between high and low control was taken as 100% activity. Residual activity (in %) was calculated using the following formula: Res. Activity (%)=100×[(cpm of compound-low control)/(high control-low control)].
The fitting method used was a least-squares fit.

CXCR4 [2] = target: T2, CXCR4 (Homo sapiens, UniProt P61073); test: Chemokine (CXCL12-AF647) binding inhibition assay, Jurkat cells expressing CXCR4; settings: CXCL12-AF647 25 ng/ml, read-out: IC50 CXCL-12 binding Jurkat
T2 sequence (P61073 whole entry): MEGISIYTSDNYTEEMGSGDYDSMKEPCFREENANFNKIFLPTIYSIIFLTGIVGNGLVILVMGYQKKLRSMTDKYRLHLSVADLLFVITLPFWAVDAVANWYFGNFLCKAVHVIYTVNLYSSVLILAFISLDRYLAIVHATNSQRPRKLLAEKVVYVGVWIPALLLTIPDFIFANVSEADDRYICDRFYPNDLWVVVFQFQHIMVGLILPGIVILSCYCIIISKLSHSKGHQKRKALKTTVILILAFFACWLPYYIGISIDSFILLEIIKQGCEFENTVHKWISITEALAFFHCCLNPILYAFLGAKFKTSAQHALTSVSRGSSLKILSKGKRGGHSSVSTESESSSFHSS
Description: Jurkat cells expressing CXCR4 were washed once with assay buffer (Hanks' balanced salt solution with 20 mM HEPES buffer and 0.2% bovine serum albumin, pH 7.4) and then incubated for 15 min at room temperature with the test compounds diluted in assay buffer at dose-dependent concentrations. Subsequently, CXCL12-AF647 (25 ng/ml) was added to the compound-incubated cells. The cells were incubated for 30 min at room temperature. Thereafter, the cells were washed twice in assay buffer, fixed in 1% paraformaldehyde in PBS, and analyzed on the FL4 channel of a FACSCalibur flow cytometer equipped with a 635-nm red diode laser (Becton Dickinson, San Jose, CA, USA).
The percentages of inhibition of CXCL12-AF647 binding were calculated according to the formula: [1−((MFI−MFINC)/(MFIPC−MFINC))]×100 where MFI is the mean fluorescence intensity of the cells incubated with CXCL 12-AF647 in the presence of the inhibitor, MFINC is the mean fluorescence intensity measured in the negative control (i.e., autofluorescence of unlabeled cells), and MFIPC is the mean fluorescence intensity of the positive control (i.e., cells exposed to CXCL12-AF647 alone).

CXCR4 [3] = target: T2, CXCR4; test: Intracellular CXCL-12-induced calcium mobilization assay (FLIPR), U87.CXCR4 cells; format: cell-based; design: expressed in transfected cells; host or cells: U87 (U87.CXCR4); settings: CXCL-12 25-50 ng/ml, read-out: IC50 CXCL-12 Ca2+ flux U87.CXCR4+
Description: Intracellular calcium mobilization induced by chemokines or chemokine-derived peptides were evaluated using a calcium responsive fluorescent probe and a FLIPR system. The CXCR-4 transfected U87 cell line (U87.CXCR4) cells were seeded in gelatine-coated black-wall 96-well plates at 20,000 cells per well and incubated for 12 hours. Cells were then loaded with the fluorescent calcium probe Fluo-2 acetoxymethyl at 4 μM final concentration in assay buffer (Hanks' balanced salt solution with 20 mM HEPES buffer and 0.2% bovine serum albumin, pH 7.4) for 45 min at 37° C. The intracellular calcium mobilization induced by the CXCL-12 (25-50 ng/ml) was then measured at 37° C. by monitoring the fluorescence as a function of time in all the wells simultaneously using a fluorometric imaging plate reader (FLIPR Tetra, Molecular Devices).

IC50 [1] [nM] | IC50 (CXCR4 [2]) [nM] | IC50 (CXCR4 [3]) [nM] | Structure (SMILES)
1 to 100 | 100 to 1000 | > 2500 | Cc1cccnc1[C@H]1CCC[C@@H](c2ncccc2C)N1CCCNC(=O)[C@@H]1CC[C@@H](Nc2ncnc3[nH]cc(C(=O)c4ccc(Oc5ccccc5)cc4Cl)c23)CO1 [Compound I-20]
100 to 1000 | 100 to 1000 | > 2500 | Cc1cc(-c2ncnc3[nH]c(S(=O)(=O)NCCCN4[C@@H](c5ncccc5C)CCC[C@H]4c4ncccc4C)cc23)ccc1CNC(=O)c1ccc(C(C)(C)C)cc1 [Compound I-27]
1000 to 2500 | 100 to 1000 | > 2500 | Cc1cc(-c2ncnc3[nH]c(S(=O)(=O)NCCCCN4[C@@H](c5ncccc5C)CCC[C@H]4c4ncccc4C)cc23)ccc1CNC(=O)c1ccc(C(C)(C)C)cc1 [Compound I-28]
100 to 1000 | 1 to 100 | 100 to 1000 | Cc1cccnc1[C@H]1CCC[C@@H](c2ncccc2C)N1CCN1CCN(C(=O)c2ccc(-c3cc4c(-c5cccc(NC(=O)c6ccc(C(F)(F)F)cc6)c5C)ncnc4[nH]3)cc2)CC1 [Compound I-34]
1 to 100 | 1 to 100 | 1 to 100 | Cc1cccnc1[C@H]1CCC[C@@H](c2ncccc2C)N1CCNC1CN(C(=O)c2ccc(-c3cc4c(-c5cccc(NC(=O)c6ccc(C(C)C)cc6)c5C)ncnc4[nH]3)cc2)C1 [Compound I-35]
1 to 100 | 1 to 100 | 100 to 1000 | Cc1cc(-c2ncnc3[nH]c(C(=O)NCCCN4[C@@H](c5ncccc5C)CCC[C@H]4c4ncccc4C)cc23)ccc1CNC(=O)c1ccc(C(C)C)cc1 [Compound I-38]
1 to 100 | 1 to 100 | > 2500 | Cc1cc(-c2ncnc3[nH]c(C(=O)NCCCN4[C@@H](c5ncccc5C)CCC[C@H]4c4ncccc4C)cc23)ccc1CNC(=O)c1ccc(C(F)(F)F)cc1 [Compound I-40]
1 to 100 | 1 to 100 | 100 to 1000 | Cc1cc(-c2ccnc(Nc3cnn(CCN4[C@@H](c5ncccc5C)CCC[C@H]4c4ncccc4C)c3)n2)ccc1CNC(=O)N1CC(OC(F)(F)F)C1 [Compound I-43]
1 to 100 | 1 to 100 | 100 to 1000 | Cc1cc(-c2ncnc3[nH]c(C(=O)NCCCCN4[C@@H](c5ncccc5C)CCC[C@H]4c4ncccc4C)cc23)ccc1CNC(=O)c1ccc(C(C)C)cc1 [Compound I-44]
1 to 100 | 1 to 100 | 1000 to 2500 | Cc1cc(-c2ncnc3[nH]c(C(=O)NCCCCN4[C@@H](c5ncccc5C)CCC[C@H]4c4ncccc4C)cc23)ccc1CNC(=O)c1cccc(C(C)C)c1 [Compound I-45]
> 2500 | > 2500 | > 2500 | Cc1cccnc1[C@H]1CC(Cn2cc(-c3ccc(Oc4ccccc4)cc3)c3c(N)ncnc32)C[C@@H](c2ncccc2C)N1CCCCN (stereo partly shown) [Compound I-61]
1000 to 2500 |  |  | Cc1cccnc1[C@H]1CCC[C@@H](c2ncccc2C)N1CCCCNC1CN(C(=O)c2cc3c(-c4cccc(NC(=O)c5ccc(F)cc5)c4C)ncnc3[nH]2)C1 [Compound I-92]

Continued, compound first:

Structure (SMILES) | IC50 [1] [nM] | IC50 (CXCR4 [2]) [nM] | IC50 (CXCR4 [3]) [nM]
Cc1cccnc1[C@H]1CC(COC(=O)[C@@H]2CC[C@@H](Nc3ncnc4[nH]cc(C(=O)c5ccc(Oc6ccccc6)cc5Cl)c34)CO2)C[C@@H](c2ncccc2C)N1CCCCN (stereo partly shown) [Compound I-21] | 1 to 100 | 1 to 100 | 100 to 1000
Cc1cccnc1[C@H]1CC(C(=O)OC[C@@H]2CC[C@@H](Nc3ncnc4[nH]cc(C(=O)c5ccc(Oc6ccccc6)cc5Cl)c34)CO2)C[C@@H](c2ncccc2C)N1CCCCN (stereo partly shown) [Compound I-22] | 1 to 100 | 1 to 100 | 100 to 1000
Cc1cc(-c2ncnc3[nH]c(S(=O)(=O)NCCN4[C@@H](c5ncccc5C)CCC[C@H]4c4ncccc4C)cc23)ccc1CNC(=O)c1ccc(C(C)(C)C)cc1 [Compound I-26] | 1000 to 2500 | > 2500 | > 2500
Cc1cc(-c2ccnc(Nc3cnn(CCCCN4[C@@H](c5ncccc5C)CCC[C@H]4c4ncccc4C)c3)n2)ccc1CNC(=O)N1CC(OC(C)C)C1 [Compound I-29] | 1 to 100 |  | > 2500
Cc1cccnc1[C@H]1CCC[C@@H](c2ncccc2C)N1CCCN1CCN(C(=O)c2ccc(-c3cc4c(-c5cccc(NC(=O)c6ccccc6)c5C)ncnc4[nH]3)cc2)CC1 [Compound I-30] | 100 to 1000 | 1 to 100 | 1 to 100
Cc1cccnc1[C@H]1CCC[C@@H](c2ncccc2C)N1CCCCN1CCN(C(=O)c2ccc(-c3cc4c(-c5cccc(NC(=O)c6ccccc6)c5C)ncnc4[nH]3)cc2)CC1 [Compound I-31] | 100 to 1000 | 1 to 100 | 1 to 100
Cc1cccnc1[C@H]1CCC[C@@H](c2ncccc2C)N1CCN1CCN(C(=O)c2ccc(-c3cc4c(-c5cccc(NC(=O)c6ccc(C(C)C)cc6)c5C)ncnc4[nH]3)cc2)CC1 [Compound I-32] | 1 to 100 | 1 to 100 | > 2500
Cc1cccnc1[C@H]1CCC[C@@H](c2ncccc2C)N1CCN1CCN(C(=O)c2ccc(-c3cc4c(-c5cccc(NC(=O)c6cccc(C(C)C)c6)c5C)ncnc4[nH]3)cc2)CC1 [Compound I-33] | 100 to 1000 | 1 to 100 | 100 to 1000
Cc1cccnc1[C@H]1CCC[C@@H](c2ncccc2C)N1CCNC1CN(C(=O)c2ccc(-c3cc4c(-c5cccc(NC(=O)c6cccc(C(C)C)c6)c5C)ncnc4[nH]3)cc2)C1 [Compound I-36] | 1000 to 2500 | 1 to 100 | 100 to 1000
Cc1cccnc1[C@H]1CCC[C@@H](c2ncccc2C)N1CCNC1CN(C(=O)c2ccc(-c3cc4c(-c5cccc(NC(=O)c6ccc(C(F)(F)F)cc6)c5C)ncnc4[nH]3)cc2)C1 [Compound I-37] | 100 to 1000 | 1 to 100 | 1 to 100
Cc1cc(-c2ncnc3[nH]c(C(=O)NCCCN4[C@@H](c5ncccc5C)CCC[C@H]4c4ncccc4C)cc23)ccc1CNC(=O)c1cccc(C(C)C)c1 [Compound I-39] | 100 to 1000 | 1 to 100 | > 2500
COC1CN(C(=O)NCc2ccc(-c3ccnc(Nc4cnn(CCN5[C@@H](c6ncccc6C)CCC[C@H]5c5ncccc5C)c4)n3)cc2C)C1 [Compound I-41] | 1 to 100 | 1 to 100 | > 2500
Cc1cc(-c2ccnc(Nc3cnn(CCN4[C@@H](c5ncccc5C)CCC[C@H]4c4ncccc4C)c3)n2)ccc1CNC(=O)N1CC(OC(C)(C)C)C1 [Compound I-42] | 1 to 100 | 1 to 100 | 100 to 1000
Cc1cc(-c2ncnc3[nH]c(C(=O)NCCCCN4[C@@H](c5ncccc5C)CCC[C@H]4c4ncccc4C)cc23)ccc1CNC(=O)c1ccc(C(F)(F)F)cc1 [Compound I-46] | 1 to 100 | 1 to 100 | 100 to 1000
Cc1cccnc1[C@H]1CCC[C@@H](c2ncccc2C)N1CCn1cc(-c2ccc(Oc3ccccc3)cc2)c2c(N)ncnc21 [Compound I-63] | > 2500 | 1000 to 2500 | > 2500
Cc1cccnc1[C@H]1CCC[C@@H](c2ncccc2C)N1CCCNC1CN(C(=O)c2cc3c(-c4cccc(NC(=O)c5ccc(F)cc5)c4C)ncnc3[nH]2)C1 [Compound I-91] | > 2500 |  | 
